Test results published in ChEMBL document CHEMBL1122916, “Synthesis of xanthines as adenosine antagonists, a practical quantitative structure-activity relationship application” (J Med Chem, 1985).
Converted amounts (≈) assume the structure as drawn.

Columns and labels:
[1] = organism: Bos taurus; assay: log(1000/IC50 determined from bovine brain membrane) expressed as potency; assay type: functional
[2] = molecular target: T1, Adenosine receptor A1 (Rattus norvegicus, UniProt P25099); assay: Binding affinity against rat brain adenosine A1 receptor by using N6-[3H]- cyclohexyladenosine as radioligand
T1 sequence (P25099 whole entry): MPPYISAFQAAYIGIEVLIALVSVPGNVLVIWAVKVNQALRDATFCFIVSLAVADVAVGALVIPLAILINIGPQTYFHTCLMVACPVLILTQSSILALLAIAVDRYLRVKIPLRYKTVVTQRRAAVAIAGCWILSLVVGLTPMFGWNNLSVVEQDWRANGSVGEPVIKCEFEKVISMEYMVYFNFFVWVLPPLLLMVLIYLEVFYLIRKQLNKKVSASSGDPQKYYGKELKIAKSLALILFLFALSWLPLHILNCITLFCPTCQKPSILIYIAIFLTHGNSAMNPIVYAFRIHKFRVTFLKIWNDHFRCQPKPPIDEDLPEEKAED

[3] = molecular target: T2, Adenosine receptor A1 (Bos taurus, UniProt P28190)
T2 sequence (P28190 whole entry): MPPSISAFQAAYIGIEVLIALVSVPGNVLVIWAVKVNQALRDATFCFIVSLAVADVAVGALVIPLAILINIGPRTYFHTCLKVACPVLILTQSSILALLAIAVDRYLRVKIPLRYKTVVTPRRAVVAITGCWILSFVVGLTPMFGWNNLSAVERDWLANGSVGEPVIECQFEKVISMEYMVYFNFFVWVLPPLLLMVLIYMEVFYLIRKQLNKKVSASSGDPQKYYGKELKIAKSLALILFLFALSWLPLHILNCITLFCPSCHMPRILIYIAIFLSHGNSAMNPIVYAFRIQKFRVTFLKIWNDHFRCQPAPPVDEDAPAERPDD
Description: Binding affinity against bovine brain adenosine A1 receptor by using N6-[3H]- cyclohexyladenosine

[4] = Equilibrium constant (pKa) was determined.; assay type: physicochemical
[5] = Solubility in 0.1 N HCl; assay type: physicochemical
[6] = Partition coefficient (logP); assay type: physicochemical; conditions: octanol/water
[7] = Solubility in 0.1 M phosphate buffer at pH 7.4; assay type: physicochemical
[8] = phosphate buffer, read-out: Solubility

IC50 [3] [nM]	SMILES	Potency [1]	further results
–	COc1ccccc1-c1nc2c(=O)n(C)c(=O)n(C)c2[nH]1	0.46	–
–	CCn1c(=O)c2nc(-c3ccc(Br)cc3)[nH]c2n(CC)c1=O	3	–
–	CN(C)c1cccc(-c2nc3c(=O)n(C)c(=O)n(C)c3[nH]2)c1	1.1	–
–	Cn1c(=O)c2nc(-c3cccc(O)c3)[nH]c2n(C)c1=O	2.22	–
–	Cn1c(=O)c2nc(-c3cccc4ccccc34)[nH]c2n(C)c1=O	1.1	–
–	Cn1c(=O)c2nc(-c3ccccc3O)[nH]c2n(C)c1=O	2	–
3.3	CCn1c(=O)c2nc(-c3ccc(S(=O)(=O)NCCN(C)C)cc3)[nH]c2n(CC)c1=O	–	IC50 [2]: 116 nM; pKa [4]: 6.8; solubility [5]: 11500 µg/mL (≈ 26500 µM); logP [6]: 2.57; solubility [7, 8]: 110 µg/mL (≈ 253 µM)
1.75	Cn1c(=O)c2[nH]c(-c3ccc(N)cc3)nc2n(C)c1=O	–	–
0.05	CCCn1c(=O)c2nc(-c3ccc(S(=O)(=O)NCCN(C)C)cc3)[nH]c2n(CCC)c1=O	–	IC50 [2]: 6.5 nM; pKa [4]: 6; solubility [5]: 19900 µg/mL (≈ 43000 µM); logP [6]: 3.32; solubility ([7]; buffer): 50 µg/mL (≈ 108 µM)
–	Cn1c(=O)c2nc(-c3ccc(Cl)cc3N)[nH]c2n(C)c1=O	3.46	–
12.5	Cn1c(=O)c2[nH]c(-c3ccccc3F)nc2n(C)c1=O	–	–
–	CC(C)c1ccc(-c2nc3c(=O)n(C)c(=O)n(C)c3[nH]2)cc1	2.6	–
–	Cn1c(=O)c2nc(-c3cccc(C(=O)O)c3)[nH]c2n(C)c1=O	0	–
–	CCCCOc1ccc(-c2nc3c(=O)n(C)c(=O)n(C)c3[nH]2)cc1	2.4	–
–	Cc1ccc(-c2nc3c(=O)n(C)c(=O)n(C)c3[nH]2)cc1	3.1	–
–	Cn1c(=O)c2nc(-c3ccccc3F)[nH]c2n(C)c1=O	1.9	–
–	Cn1c(=O)c2nc(-c3ccc4ccccc4c3)[nH]c2n(C)c1=O	2.26	–
–	CCCn1c(=O)c2[nH]c(-c3ccc(Cl)cc3N)nc2n(CCC)c1=O	–	pKa [4]: 8.4; solubility [5]: 0.4 µg/mL (≈ 1.11 µM); logP [6]: 4.02; solubility [7, 8]: < 0.1 µg/mL
0.35	Cn1c(=O)c2[nH]c(-c3ccc(Cl)cc3N)nc2n(C)c1=O	–	–
–	Cn1c(=O)c2nc(-c3ccc(Cl)c(Cl)c3)[nH]c2n(C)c1=O	2.3	–
4.2	CCn1c(=O)c2nc(-c3ccc(S(=O)(=O)NCC(C)O)cc3)[nH]c2n(CC)c1=O (stereo not given)	–	IC50 [2]: 138 nM

IC50 [3] [nM]	SMILES	Potency [1]	further results
0.75	Cn1c(=O)c2[nH]c(-c3ccc(Br)cc3)nc2n(C)c1=O	–	–
–	C=CCn1c(=O)c2nc(-c3ccc(Cl)cc3N)[nH]c2n(CC=C)c1=O	3.1	–
6.5	CCn1c(=O)c2nc(-c3ccc(S(=O)(=O)N4CCN(C)CC4)cc3)[nH]c2n(CC)c1=O	–	IC50 [2]: 190 nM
–	Cc1ccccc1-c1nc2c(=O)n(C)c(=O)n(C)c2[nH]1	2.19	–
0.75	CCCn1c(=O)c2nc(-c3ccccc3N)[nH]c2n(CCC)c1=O	–	IC50 [2]: 41 nM; pKa [4]: 9.1; solubility [5]: 4 µg/mL (≈ 12.2 µM); logP [6]: 3.54; solubility [7, 8]: < 1 µg/mL
–	COc1ccc(-c2nc3c(=O)n(C)c(=O)n(C)c3[nH]2)cc1	2.82	–
–	Cn1c(=O)c2nc(-c3cccc([N+](=O)[O-])c3)[nH]c2n(C)c1=O	1.3	–
–	CCCn1c(=O)c2nc(-c3ccccc3)[nH]c2n(CCC)c1=O	3.15	–
0.7	CCCn1c(=O)c2[nH]c(-c3ccccc3)nc2n(CCC)c1=O	–	–
0.07	CCCn1c(=O)c2nc(-c3ccc(S(=O)(=O)NCCCCN(C)C)cc3)[nH]c2n(CCC)c1=O	–	IC50 [2]: 7.5 nM
0.91	CCn1c(=O)c2[nH]c(-c3ccc(S(N)(=O)=O)cc3)nc2n(CC)c1=O	–	IC50 [2]: 47 nM
–	Cn1c(=O)c2nc(-c3ccc(Cl)cc3)[nH]c2n(C)c1=O	3.1	–
–	Cn1c(=O)c2nc(-c3ccc(N)cc3)[nH]c2n(C)c1=O	2.76	–
–	C=CCn1c(=O)c2[nH]c(-c3ccc(Cl)cc3N)nc2n(C)c1=O	2.7	–
–	Cn1c(=O)c2nc(-c3ccc(-c4ccccc4)cc3)[nH]c2n(C)c1=O	2.46	–
–	Cn1c(=O)c2nc(-c3ccc(I)cc3)[nH]c2n(C)c1=O	2.89	–
–	Cn1c(=O)c2nc(-c3cccc(N)c3)[nH]c2n(C)c1=O	2	–
0.15	CCCn1c(=O)c2nc(-c3ccc(N)cc3N)[nH]c2n(CCC)c1=O	3.82	–
–	Cn1c(=O)c2nc(-c3ccccc3[N+](=O)[O-])[nH]c2n(C)c1=O	1.1	–
36.6	CCn1c(=O)c2[nH]c(-c3ccc(S(=O)(=O)N4CCSCC4)cc3)nc2n(CC)c1=O	–	IC50 [2]: 646 nM
